The values below come from patent US20240228488A1 (TAKEDA PHARMACEUTICAL COMPANY LIMITED, priority 2021, published 2024).

Experiment [1] addresses human activated kallikrein enzyme (Homo sapiens, UniProt P03952). Description: Plasma kallikrein inhibition, fluorogenic PFR-AMC substrate, 500 pM activated kallikrein format. In kind it is biochemical. Conditions: 500 pM activated kallikrein, 300 uM PFR-AMC, 30 min preincubation, 10 min reaction; read-out: Primary Dose Response Assay: Average EC50. The essentials: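 High-enzyme format of the fluorogenic peptide assay, with EC50 taken from AMC signal: 500 pM activated kallikrein, 300 uM Pro-Phe-Arg-AMC, 30 min compound preincubation and 10 min reaction, all at room temperature, pH 7.5.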

Another experiment deals with T1, plasma kallikrein (Homo sapiens, UniProt P03952).
T1 construct: from tissue
Description: Neat human plasma assay, FXIIa contact pathway-activated, PFR-AMC substrate. It counts as biochemical. Conditions: citrated human plasma 78% final, 10 nM human FXIIa, 100 μM PFR-AMC; read-out: Human Plasma Assay: IC90. The essentials: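 Compound inhibition of plasma kallikrein measured as PFR-AMC (100 μM) cleavage rate over 5 min at room temperature in 78% citrated human plasma activated with 10 nM FXIIa (Tris pH 7.5 buffer). IC50/IC90 from 4-parameter fit of rate versus inhibitor concentration.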

human activated kallikrein enzyme, sequence (P03952 391-638 limits assumed): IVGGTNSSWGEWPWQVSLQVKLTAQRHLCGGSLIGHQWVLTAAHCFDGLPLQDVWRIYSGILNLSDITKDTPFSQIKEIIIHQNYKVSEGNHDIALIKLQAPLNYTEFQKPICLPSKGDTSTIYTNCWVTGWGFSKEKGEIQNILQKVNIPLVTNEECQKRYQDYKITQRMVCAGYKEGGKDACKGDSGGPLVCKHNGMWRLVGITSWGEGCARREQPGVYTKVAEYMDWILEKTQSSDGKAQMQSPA
human activated kallikrein enzyme, sequence (P03952 20-390 partner limits assumed): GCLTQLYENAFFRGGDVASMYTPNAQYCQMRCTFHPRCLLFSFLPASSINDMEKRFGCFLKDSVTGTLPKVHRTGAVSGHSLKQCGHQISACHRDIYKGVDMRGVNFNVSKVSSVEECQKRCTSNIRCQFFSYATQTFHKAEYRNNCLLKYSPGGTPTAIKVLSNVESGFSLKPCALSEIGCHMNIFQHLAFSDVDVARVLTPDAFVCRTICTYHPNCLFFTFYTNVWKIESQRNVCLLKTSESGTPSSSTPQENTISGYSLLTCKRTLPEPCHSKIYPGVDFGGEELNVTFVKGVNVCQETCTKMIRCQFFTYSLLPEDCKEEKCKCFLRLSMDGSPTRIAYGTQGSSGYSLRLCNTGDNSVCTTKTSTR
T1 sequence (P03952 391-638 limits assumed): as the sequence (P03952 391-638 limits assumed) above
T1 sequence (P03952 20-390 partner limits assumed): as the sequence (P03952 20-390 partner limits assumed) above

With `Cc1ccnc([C@H]2C[C@@H]2C(=O)Nc2cc(N(C)Cc3cn4cc(C5CC5)cc(N5CC(=O)NC5=O)c4n3)ncn2)n1` [Example 375, (1S,2S)-N-(6-(((6-cyclopropyl-8-(2,4-dioxoimidazolidin-1-yl)imidazo[1,2-a]pyridin-2-yl)methyl)(methyl)amino)pyrimidin-4-yl)-2-(4-methylpyrimidin-2-yl)cyclopropane-1-carboxamide], the EC50 in experiment [1] was less than 1 nM. For the same molecule, the IC90 on plasma kallikrein was less than 400 nM.
For the molecule `CN(C)CCc1cc(C2CC2)cn2cc(CNc3ccnc(NC(=O)[C@H]4C[C@@H]4c4cccc(Cl)c4)c3)nc12` [Example 598, (1S,2S)-2-(3-chlorophenyl)-N-(4-(((6-cyclopropyl-8-(2-(dimethylamino)ethyl)imidazo[1,2-a]pyridin-2-yl)methyl)amino)pyridin-2-yl)cyclopropane-1-carboxamide], the EC50 in experiment [1] is less than 1 nM. The IC90 on plasma kallikrein was less than 400 nM.
As to `CN1C(=O)CN(c2cc(C3CC3)cn3cc(CNc4cc(NC(=O)[C@H]5C[C@@H]5c5cc(Cl)ccn5)ncn4)nc23)C1=O` (single isomer, unassigned) [Example I-264], in experiment [1], the EC50 is less than 1 nM. In addition, at plasma kallikrein, the IC90 is 400 to 1500 nM.
The matching figures for `O=C(Nc1cc(NCc2cn3cc(C4CC4)cc(N4CCOCC4)c3n2)ccn1)[C@H]1C[C@@H]1c1cccc(Cl)c1` [Example 129, (1S,2S)-2-(3-chlorophenyl)-N-(4-(((6-cyclopropyl-8-morpholinoimidazo[1,2-a]pyridin-2-yl)methyl)amino)pyridin-2-yl)cyclopropane-1-carboxamide]: less than 1 nM and 1500 to 10000 nM.
For `CN1CCN(C(=O)c2cc(C3CC3)cn3cc(CNc4cc(NC(=O)[C@H]5C[C@@H]5c5cccc(Cl)c5)ncn4)nc23)CC1` [Example 301, (1S,2S)-2-(3-chlorophenyl)-N-(6-(((6-cyclopropyl-8-(4-methylpiperazine-1-carbonyl)imidazo[1,2-a]pyridin-2-yl)methyl)amino)pyrimidin-4-yl)cyclopropane-1-carboxamide], the EC50 in experiment [1] was less than 1 nM. Further, on plasma kallikrein, the IC90 lay within 1500 to 10000 nM.
On to `CN(c1cc(C2CC2)cn2cc(CNc3ccnc(NC(=O)[C@H]4C[C@@H]4c4cccc(Cl)c4)c3)nc12)S(C)(=O)=O` [Example 128, (1S,2S)-2-(3-chlorophenyl)-N-(4-(((6-cyclopropyl-8-(N-methylmethylsulfonamido)imidazo[1,2-a]pyridin-2-yl)methyl)amino)pyridin-2-yl)cyclopropane-1-carboxamide], for which the 50% effective concentration (EC50) in experiment [1] was less than 1 nM. Also, the IC90 on plasma kallikrein was 400 to 1500 nM.
`O=C(Nc1cc(N2C[C@@H](O)C[C@@H]2c2cn3cc(C4CC4)ccc3n2)ncn1)[C@H]1C[C@@H]1c1cc(Cl)ccn1` (single isomer, unassigned; isomer 2) [Example I-249, (1S*,2S*)-2-(4-chloropyridin-2-yl)-N-(6-((2R,4S)-2-(6-cyclopropylimidazo[1,2-a]pyridin-2-yl)-4-hydroxypyrrolidin-1-yl)pyrimidin-4-yl)cyclopropane-1-carboxamide, isomer 2]: the EC50 in experiment [1] is 1 to 10 nM. In addition, at plasma kallikrein, the IC90 is less than 400 nM.
On to `COc1cnc(NC(=O)[C@H]2C[C@@H]2c2nccc(C)n2)nc1NCc1cn2cc(C3CC3)cc(N3CC(=O)N(C)C3=O)c2n1` (racemic) [Example I-244, rac-(1S*,2S*)-N-(4-(((6-cyclopropyl-8-(3-methyl-2,4-dioxoimidazolidin-1-yl)imidazo[1,2-a]pyridin-2-yl)methyl)amino)-5-methoxypyrimidin-2-yl)-2-(4-methylpyrimidin-2-yl)cyclopropane-1-carboxamide], for which the EC50 in experiment [1] is less than 1 nM. Besides, on plasma kallikrein, the IC90 is less than 400 nM.
Turning to `Cc1ccnc([C@H]2C[C@@H]2C(=O)Nc2cc(NCc3cn4cc(C5CC5)cc(N5CC(=O)N(C)C5=O)c4n3)nc(C)n2)n1` [Example 365, (1S,2S)-N-(6-(((6-cyclopropyl-8-(3-methyl-2,4-dioxoimidazolidin-1-yl)imidazo[1,2-a]pyridin-2-yl)methyl)amino)-2-methylpyrimidin-4-yl)-2-(4-methylpyrimidin-2-yl)cyclopropane-1-carboxamide], in experiment [1], the EC50 is less than 1 nM. Also, the IC90 at plasma kallikrein is less than 400 nM.
